Columns and labels:
Assay type in all cases: physicochemical
[1] = Stability of AN-197 by daily HPLC over 24 days, mobile phase solution vs neat oil; details: 20° C.
Method: HPLC analyses were performed on a Water 2695 Separations Module, using a Luna C18 (2) 50 mm×4.6 mm×3 um column, a 5 μl injection volume and a 2487 dual wavelength detector under the following instrumental conditions: Mobile phase A: 0.1% formic acid; Mobile phase B: acetonitrile; Flow rate: 0.5 ml per minute; Mobile phase gradient: 0.0 minutes 90% A, 10% B, 14.0 minutes 20% A, 80% B, 15.0 minutes 90% A, 10% B and 20.0 minutes 90% A, 10% B; Run time: 20 minutes; Detection: UV at 254 nm; Column temperature: 40° C.
The stability of AN-197 was determined by performing an HPLC analysis daily during a period of 24 days and determining the appearance of perphenazine and GABA, the degradation products of AN-197. A sample of AN-197, prepared according to the procedure described above in Example 4 (Route B), was dissolved in the mobile phase solution used in the HPLC analysis (2:1 acetonitrile:water, pH=8) and was kept at 20° C. For comparison, a sample of neat AN-197 was kept under the same conditions and was similarly analyzed.

[2] = Stability of AN-197 in dichloromethane, acetonitrile or ethyl acetate heated to 40° C. overnight; details: dissolved in dichloromethane
Method: To evaluate the stability of AN-197 under conditions of a large scale production, characterized by longer procedure times, samples of AN-197, prepared according to the procedure described in Example 4 above (Route B) above, dissolved in dichloromethane, acetonitrile or ethyl acetate were heated to 40° C. overnight. […] It was therefore concluded that AN-197 is stable under such conditions.

[3] = Stability of AN-197 under acidic conditions (citric acid solution); details: in ethyl acetate, stirred in citric acid solution overnight
Method: To evaluate the stability of AN-197 under acidic conditions, a sample of AN-197, prepared according to the procedure described in Example 4 (Route B) above, was dissolved in ethyl acetate and stirred in a citric acid solution overnight.

SMILES: CC(C)(C)OC(=O)NCCCC(=O)OCCN1CCN(CCCN2c3ccccc3Sc3ccc(Cl)cc32)CC1 [AN-197, Perphenazine N-Boc-4-aminobutyrate]
- perphenazine content (HPLC) ([1]; AN-197 solution in HPLC mobile phase (2:1 acetonitrile:water, pH=8), after 24 days): 7.98%
- perphenazine content (HPLC) ([1]; AN-197 solution in HPLC mobile phase (2:1 acetonitrile:water, pH=8), initial): 0.42%
- perphenazine content (HPLC) ([1]; neat oil, after 24 days): 0.79%
- perphenazine content (HPLC) ([1]; neat oil, initial): 0.42%
- degradation [2]: no degradation had occurred
- hydrolysis of the product [3]: no hydrolysis

— US20090298814A1, “Novel salts of conjugated psychotropic drugs and processes of preparing same” (RAMOT AT TEL AVIV UNIVERISTY LTD, priority 2005, published 2009)
